This is an account of results in patent publication US10844064B2, “sGC stimulators” (Cyclerion Therapeutics, Inc., priority 2014, dated 2020).

The structures appear in SMILES notation. Values joined by “and” are separate entries in the source; they are usually repeats but may differ in a detail not shown here. Identical values can stand only once.

The target of this test is T1, sGC enzyme (Homo sapiens, UniProt Q02108+Q02153).
T1 construct: host or cells: HEK293 expressing GloSensor 40F cGMP
T1 sequence (Q02108 1-690): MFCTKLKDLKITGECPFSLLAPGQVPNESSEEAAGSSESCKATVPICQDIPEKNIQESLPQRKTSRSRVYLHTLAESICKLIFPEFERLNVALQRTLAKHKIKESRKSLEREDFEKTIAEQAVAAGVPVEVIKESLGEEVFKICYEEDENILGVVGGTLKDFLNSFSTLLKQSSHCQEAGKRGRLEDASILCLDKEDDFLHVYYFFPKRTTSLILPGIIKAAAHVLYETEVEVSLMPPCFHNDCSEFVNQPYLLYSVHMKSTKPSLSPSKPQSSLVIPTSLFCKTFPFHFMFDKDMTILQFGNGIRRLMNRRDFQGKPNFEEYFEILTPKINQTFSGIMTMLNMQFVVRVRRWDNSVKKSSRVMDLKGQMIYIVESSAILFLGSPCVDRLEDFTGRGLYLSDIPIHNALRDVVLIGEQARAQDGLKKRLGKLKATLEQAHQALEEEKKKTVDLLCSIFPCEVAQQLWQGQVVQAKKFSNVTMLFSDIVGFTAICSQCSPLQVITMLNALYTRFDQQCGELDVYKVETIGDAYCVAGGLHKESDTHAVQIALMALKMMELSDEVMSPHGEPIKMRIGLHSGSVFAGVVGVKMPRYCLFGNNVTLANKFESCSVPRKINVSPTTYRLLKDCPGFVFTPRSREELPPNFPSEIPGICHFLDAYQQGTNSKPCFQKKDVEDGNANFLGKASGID
T1 sequence (Q02153 1-619): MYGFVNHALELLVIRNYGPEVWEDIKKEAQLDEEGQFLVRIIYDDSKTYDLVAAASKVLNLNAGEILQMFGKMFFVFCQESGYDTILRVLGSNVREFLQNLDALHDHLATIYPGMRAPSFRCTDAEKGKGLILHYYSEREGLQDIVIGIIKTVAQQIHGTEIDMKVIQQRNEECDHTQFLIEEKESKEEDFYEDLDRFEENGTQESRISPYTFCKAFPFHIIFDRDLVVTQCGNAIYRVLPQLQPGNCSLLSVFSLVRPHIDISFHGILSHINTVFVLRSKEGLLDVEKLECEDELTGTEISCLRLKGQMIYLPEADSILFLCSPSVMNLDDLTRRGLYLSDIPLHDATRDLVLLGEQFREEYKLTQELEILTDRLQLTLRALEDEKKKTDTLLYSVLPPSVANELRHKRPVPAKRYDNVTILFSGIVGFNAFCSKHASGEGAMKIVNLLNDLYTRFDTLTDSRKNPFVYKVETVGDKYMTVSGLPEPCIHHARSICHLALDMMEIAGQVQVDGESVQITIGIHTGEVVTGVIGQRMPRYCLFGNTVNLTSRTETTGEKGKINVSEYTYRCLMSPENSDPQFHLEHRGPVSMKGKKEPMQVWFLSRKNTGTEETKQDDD
In words: cGMP GloSensor cell-based assay, 384-well format (Example 2B). To be noted: HEK293 GloSensor 40F cGMP cells, 10 μM DETA-NONOate; 50% of high control response (Compound Y); read-out: sGC_HEK_GloSensor EC50/IC50 Abs (Norm) (nM) Binned. The procedure:
Data were normalized to a high control using the following equation: 100*(Sample—Low Control)/(High Control—Low Control), where the low control is the average of 16 samples treated with 1% DMSO, and the high control is the average of 16 samples treated with 30 μM of Compound Y depicted below. Data were fit using a 4-parameter fit (log(agonist) vs. response variable slope) using GraphPad Prism Software v.5. n=2 for all compounds. […] Compounds failing to elicit a minimum response of 50% are reported as >30 μM. For compounds run in duplicate or n higher than 2, the result herein given is the geometric mean of the several results obtained.
Human embryonic kidney cells (HEK293) cells expressing GloSensor™ 40F cGMP (Part No: CS182801, Promega) were used to evaluate the activity of test compounds. The luminescent biosensors (engineered luciferase) that were incorporated into these cells detect cGMP formed by the compounds stimulating the sGC enzyme and emit luminescence.
cGMP GloSensor cells were maintained in Dulbecco's Modification of Eagle's Medium (DMEM) supplemented with fetal bovine serum (FBS) (10% final) and hygromycine (200 μg/ml). The day before assay, cells were plated in DMEM with 10% FBS in a 50 μL volume at a density of 1.5×10^4 cells/well in a poly-D-lysine coated 384-well flat white-bottom plate (Corning Cat No 35661). Cells were incubated overnight at 37° C. in a humidified chamber with 5% CO2. The next day, medium was removed and cells were replaced with 40 μl/well of GloSensor™, […] (Promega Cat No E1291). Cells were treated for 90 minutes at 25° C. to allow the substrate to equilibrate in the cells. Test compounds and Diethylenetriamine NONOate (DETA-NONOate) was diluted to […] in serum-free CO2 independent medium and serally diluted at 4× dilutions to create 5× dose curve from which 10 ul was added to the wells (x uM concentration for test compound solution and 10 μM concentration for DETA-NONOate solution; wherein x is one of the following final concentrations).
For the kinetics studies, luminescense was measured right away for 0.2 sec per well with Envision (Perkin Elmer model No). For endpoint SAR screening, data were collected after 55 min incubation at room temperature.
Data analysis was carried out as indicated above in Example 2A.
Take `Cn1cc(-c2nc(N)c3c(n2)NC(=O)C3(C)C)nc1Cc1ccccc1F` [Compound I-12]: the EC50 was > 1000 nM and < 100 nM.

Regarding `COc1cc(-c2ncc3c(n2)NC(=O)C3(C)C)nn1Cc1ccccc1F` [Compound I-24], the EC50 was 100 to 1000 nM.

Take `CC(=O)c1cc(-c2ncc3c(n2)NC(=O)C3(C)C)nn1Cc1ccccc1F` [Compound I-25]: the EC50 is 100 to 1000 nM.

Consider `COc1cc(-c2ncc3c(n2)N(C)C(=O)C3(C)C)nn1Cc1ccccc1F` [Compound I-26], for which the EC50 is > 1000 nM.

Consider `COc1cc(-c2ncc3c(n2)NCC3(C)C)nn1Cc1ccccc1F` [Compound I-27], for which the EC50 was in the range of 100 to 1000 nM.

In the case of `COc1cc(-c2nc(O)c3c(n2)NC(=O)C3(C)C)nn1Cc1ccccc1F` [Compound I-28], the EC50 fell in the range of 100 to 1000 nM.

As for `CC1(C)C(=O)Nc2nc(-c3cc(O)n(Cc4ccccc4F)n3)ncc21` [Compound I-29], the EC50 was > 1000 nM.

As to `CC1(C)C(=O)Nc2nc(-c3cc(OC(F)F)n(Cc4ccccc4F)n3)ncc21` [Compound I-31], the EC50 lay within 100 to 1000 nM.

As for `CC1(C)C(=O)Nc2nc(-c3cc(OC(F)F)n(Cc4ccccc4F)n3)nc(O)c21` [Compound I-32], the EC50 was 100 to 1000 nM.

For `COc1cc(-c2ncc3c(n2)N(CC2CC2)C(=O)C3(C)C)nn1Cc1ccccc1F` [Compound I-33], the EC50 is > 1000 nM.

As for `CCOc1cc(-c2ncc3c(n2)NC(=O)C3(C)C)nn1Cc1ccccc1F` [Compound I-34], the EC50 is > 1000 nM.

As to `CCCOc1cc(-c2ncc3c(n2)NC(=O)C3(C)C)nn1Cc1ccccc1F` [Compound I-35], the EC50 was > 1000 nM.

As for `CC(C)Oc1cc(-c2ncc3c(n2)NC(=O)C3(C)C)nn1Cc1ccccc1F` [Compound I-36], the EC50 was > 1000 nM.

As to `CC1(C)C(=O)Nc2nc(-n3cc(O)c(Cc4ccccc4F)n3)ncc21` [Compound I-37], the EC50 is > 1000 nM.

As to `COc1cn(-c2ncc3c(n2)NC(=O)C3(C)C)nc1Cc1ccccc1F` [Compound I-38], the EC50 was < 100 nM.

For the compound `COc1c(Br)c(-c2ncc3c(n2)NC(=O)C3(C)C)nn1Cc1ccccc1F` [Compound I-40], the EC50 is < 100 nM.

Consider `COc1c(C)c(-c2nc(N)c3c(n2)NC(=O)C3(C)C)nn1Cc1ccccc1F` [Compound I-41], for which the EC50 fell in the range of 100 to 1000 nM.

On to `COc1c(C)c(-c2nc(O)c3c(n2)NC(=O)C3(C)C)nn1Cc1ccccc1F` [Compound I-42], for which the EC50 was > 1000 nM.

Turning to `COc1c(C)c(-c2ncc3c(n2)NC(=O)C3(C)C)nn1Cc1ccccc1F` [Compound I-43], the EC50 was 100 to 1000 nM.

On to `COc1c(Cl)c(-c2ncc3c(n2)NC(=O)C3(C)C)nn1Cc1ccccc1F` [Compound I-44], for which the EC50 was < 100 nM.

Consider `CC1(C)C(=O)Nc2nc(-c3cc(C#N)n(Cc4ccccc4F)n3)ncc21` [Compound I-45], for which the EC50 is < 100 nM.

Turning to `COc1cc(-c2nc(N)c3c(n2)NC(=O)C3(C)C)nn1Cc1ccccc1` [Compound I-51, 4-amino-2-(1-benzyl-5-methoxy-1H-pyrazol-3-yl)-5,5-dimethyl-5H-pyrrolo-[2,3-d]pyrimidin-6(7H)-one], the EC50 was < 100 nM.

As for `COc1cc(-c2ncc3c(n2)NC(=O)C3(C)C)nn1Cc1ccccc1` [Compound I-52], the EC50 was 100 to 1000 nM.

On to `COc1cc(-c2ncc3c(n2)N(C(=O)OC(C)(C)C)C(=O)C3(C)C)nn1Cc1ccccc1` [Compound I-54, 2-(1-benzyl-5-methoxy-1H-pyrazol-3-yl)-5,5-dimethyl-6-oxo-5H-pyrrolo-[2,3-d]pyrimidine-7(6H)-carboxylate], for which the EC50 was 100 to 1000 nM.

In the case of `COc1cc(-c2ncc3c(n2)NC(=O)C3(C)C)nn1Cc1cccc(F)c1` [Compound I-55], the EC50 is < 100 nM.

With `COc1cc(-c2ncc3c(n2)NC(=O)C3(C)C)nn1Cc1ccccc1Cl` [Compound I-56], the EC50 lay within 100 to 1000 nM.

As to `COc1cc(-c2ncc3c(n2)NC(=O)C3(C)C)nn1Cc1ccc(F)cc1` [Compound I-57], the EC50 was in the range of 100 to 1000 nM.

With `COc1cc(-c2ncc3c(n2)NC(=O)C3(C)C)nn1Cc1ccc(C)cc1` [Compound I-58], the EC50 is < 100 nM.
